# From BindingDB's records for doi:10.3109/14756360903179401 (Universidad Nacional Autonoma De Mexico, 2010)
# Target: T1, cDNA, FLJ78895, highly similar to 3-oxo-5-alpha-steroid 4-dehydrogenase 1 (Homo sapiens, UniProt B7Z4L2)
# T1 sequence (B7Z4L2 whole entry): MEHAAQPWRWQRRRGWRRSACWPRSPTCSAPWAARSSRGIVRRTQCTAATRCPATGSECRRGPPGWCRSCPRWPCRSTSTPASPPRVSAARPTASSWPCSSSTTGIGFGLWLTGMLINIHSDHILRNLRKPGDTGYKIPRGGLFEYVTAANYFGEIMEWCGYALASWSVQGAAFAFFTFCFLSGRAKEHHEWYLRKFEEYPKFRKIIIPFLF
# Assay: 5α-Reductase Activity Assay
# Conditions: pH 6.5; 37 °C
# Description: The reaction mixture contained a final volume of 1 mL: 1 mM dithiothreitol, sodium phosphate buffer 40 mM, at pH 6.5 for human prostate, 2 mM NADPH, 2 nM [1,2,6,7-3H]T [Cabeza et al., Steroids 60:630-5]. The reaction in duplicate was started when it was added to the enzymatic fraction (500 μg protein in a volume of 80 μL) incubated at 37°C for 60 min [Hirosumi et al., J. Steroid Biochem. Mol. Biol., 52:357-63] and stopped by mixing with 1 mL of dichloromethane; this was considered as the end point. Incubation without tissue was used as a control. The mixture (incubation medium/dichloromethane) was agitated on a vortex for 1 min and the dichloromethane phase was separated and placed in another tube. This procedure was repeated four more times. The dichloromethane extract was evaporated to dryness under a nitrogen stream and suspended in […] that was spotted on high-performance thin layer chromatography (HPTLC) Keiselgel 60 F254 plates. T and DHT were used as carriers, and were applied in different lanes on both lateral sides of the plates (T, T + DHT, and DHT). The plates were developed in chloroform-acetone, 9:1, and were air-dried; the chromatography was repeated twice more. The steroid carriers were detected using phosphomolybdic acid reagent (DHT) and with an ultraviolet (UV) lamp (254 nm) (T). After the plates were segmented into pieces of 1 cm each, these were cut off and the strips soaked in 5 mL of Ultima Gold (Packard). The radioactivity was determined in a scintillation counter (Packard Tri-Carb 2100 TR). The radioactivity content in the segment corresponding to T and DHT carriers was identified. Radioactivity with identical chromatographic behavior to the DHT standard was considered as the DHT transformation.
row,Compound,IC50
1,"CC(=O)O[C@]1(C(C)=O)CCC2C3C=CC4=CC(=O)CC[C@]4(C)C3CC[C@@]21C (stereo partly drawn) [3,20-Dioxopregna-4,6-dien-17α-yl acetate (7)]",70 nM
2,CC(=O)O[C@]1(C(C)=O)CCC2C3CCC4=CC(=O)CC[C@]4(C)C3CC[C@@]21C (stereo partly drawn) [17α-Acetoxyprogesterone (6)],10 nM
3,CC(C)(C)NC(=O)C1CCC2C3CCC4NC(=O)C=C[C@]4(C)C3CC[C@]12C (stereo not given in full) [Finasteride (3)],8.5 nM

# The remaining lines, values ahead:
row,IC50,Compound
1,22 nM,"CC(=O)O[C@]1(C(C)=O)CCC2C3C(CC[C@@]21C)[C@@]1(C)CCC(=O)C=C1[C@H]1O[C@@H]31 (stereo partly drawn) [3,20-Dioxo-6,7-epoxypregn-4-ene-7α-yl acetate (8)]"
2,19 nM,"CC(=O)O[C@]1(C(C)=O)CCC2C3C=C(Cl)C4=CC(=O)CC[C@]4(C)C3CC[C@@]21C (stereo partly drawn) [6-Chloro-3,20-dioxopregna-4,6-diene-17α-yl acetate (9)]"
